Patent US20230340011A1 (Asteroid Therapeutics, priority 2022, published 2023)

Experiments:
[1] = target: SREBP-2 (Homo sapiens (Human), UniProt Q12772); assay: In vitro assay SREBP-2: PathHunter U2OS SREBP-2 Nuclear Translocation Cell Line, U18666A-stimulated; assay type: cell-based; settings: PathHunter U2OS SREBP-2 nuclear translocation cells, U18666A 10 μM, overnight (16 hours)
[2] = target: LXRβ (Homo sapiens (Human), UniProt P55055); assay: In vitro assay LXRβ: PathHunter NHR CHO cells, LXRβ / Steroid Receptor Co-activator Peptide enzyme fragment complementation; assay type: cell-based; settings: PathHunter NHR CHO cells, full-length human LXRβ and SRCP, chemiluminescent signal; read-out: LXRβ PPI
Sequence of LXRβ (P55055 whole entry, the tested form may be a part): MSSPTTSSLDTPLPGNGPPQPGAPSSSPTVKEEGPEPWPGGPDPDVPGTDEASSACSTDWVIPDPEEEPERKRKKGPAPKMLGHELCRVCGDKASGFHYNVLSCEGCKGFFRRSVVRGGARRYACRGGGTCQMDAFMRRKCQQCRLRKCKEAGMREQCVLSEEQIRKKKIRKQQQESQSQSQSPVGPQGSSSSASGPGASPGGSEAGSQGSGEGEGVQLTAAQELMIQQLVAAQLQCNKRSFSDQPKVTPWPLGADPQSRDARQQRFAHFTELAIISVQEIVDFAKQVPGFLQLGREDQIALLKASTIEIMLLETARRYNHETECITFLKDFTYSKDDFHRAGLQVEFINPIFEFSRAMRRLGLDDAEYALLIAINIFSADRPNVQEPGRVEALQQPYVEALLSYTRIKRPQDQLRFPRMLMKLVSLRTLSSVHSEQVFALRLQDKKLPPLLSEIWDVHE
Method in brief: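 Co-activator recruitment measured by chemiluminescence after signal generation. The CHO line carries full-length human LXRβ tagged with ProLink and an SRCP–enzyme acceptor fusion in the nucleus; cells sat overnight at 37° C before testing, in charcoal-dextran filtered serum medium with 1% final vehicle.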

| Structure (SMILES) | IC50 [1] [nM] | EC50 [2] [nM] |
| --- | --- | --- |
| C[C@H](CCC(=O)N1CCN(C(=O)c2cnccn2)[C@@H](C)C1)[C@H]1CC[C@H]2[C@@H]3CC=C4C[C@@H](O)CC[C@]4(C)[C@H]3CC[C@]12C [Example 568, (R)-4-((3S,8S,9S,10R,13R,14S,17R)-3-hydroxy-10,13-dimethyl-2,3,4,7,8,9,10,11,12,13,14,15,16,17-tetradecahydro-1H-cyclopenta[a]phenanthren-17-yl)-1-((S)-3-methyl-4-(pyrazine-2-carbonyl)piperazin-1-yl)pentan-1-one] | < 250 | > 10000 |
| Cc1nccc(N2CCN(C(=O)CC[C@@H](C)[C@H]3CC[C@H]4[C@@H]5CC=C6C[C@@H](O)CC[C@]6(C)[C@H]5CC[C@]34C)[C@@H](C)C2)n1 [Example 649, (R)-4-((3S,8S,9S,10R,13R,14S,17R)-3-hydroxy-10,13-dimethyl-2,3,4,7,8,9,10,11,12,13,14,15,16,17-tetradecahydro-1H-cyclopenta[a]phenanthren-17-yl)-1-((S)-2-methyl-4-(2-methylpyrimidin-4-yl)piperazin-1-yl)pentan-1-one] | < 250 | > 10000 |
| C[C@H](CCC(=O)N1CCC(C)(NS(C)(=O)=O)CC1)[C@H]1CC[C@H]2[C@@H]3CC=C4C[C@@H](O)CC[C@]4(C)[C@H]3CC[C@]12C [Example 84, N-(1-((R)-4-((3S,8S,9S,10R,13R,14S,17R)-3-hydroxy-10,13-dimethyl-2,3,4,7,8,9,10,11,12,13,14,15,16,17-tetradecahydro-1H-cyclopenta[a]phenanthren-17-yl)pentanoyl)-4-methylpiperidin-4-yl)methanesulfonamide] | 250 to 1000 | > 10000 |
| COC(=O)N1CCSC12CN(C(=O)CC[C@@H](C)[C@H]1CC[C@H]3[C@@H]4CC=C5C[C@@H](O)CC[C@]5(C)[C@H]4CC[C@]13C)C2 [Example 553, Methyl 2-((R)-4-((3S,8S,9S,10R,13R,14S,17R)-3-hydroxy-10,13-dimethyl-2,3,4,7,8,9,10,11,12,13,14,15,16,17-tetradecahydro-1H-cyclopenta[a]phenanthren-17-yl)pentanoyl)-5-thia-2,8-diazaspiro[3.4]octane-δ-carboxylate] | 250 to 1000 | > 10000 |
| COc1cncc(N2CCN(C(=O)CC[C@@H](C)[C@H]3CC[C@H]4[C@@H]5CC=C6C[C@@H](O)CC[C@]6(C)[C@H]5CC[C@]34C)CC2)c1 [Example 660, (R)-4-((3S,8S,9S,10R,13R,14S,17R)-3-hydroxy-10,13-dimethyl-2,3,4,7,8,9,10,11,12,13,14,15,16,17-tetradecahydro-1H-cyclopenta[a]phenanthren-17-yl)-1-(4-(5-methoxypyridin-3-yl)piperazin-1-yl)pentan-1-one] | < 250 | > 10000 |
| C[C@H](CCC(=O)N1CCN(S(=O)(=O)N(C)C)CC1)[C@H]1CC[C@H]2[C@@H]3CC=C4C[C@@H](O)CC[C@]4(C)[C@H]3CC[C@]12C [Example 358, 4-((R)-4-((3S,8S,9S,10R,13R,14S,17R)-3-hydroxy-10,13-dimethyl-2,3,4,7,8,9,10,11,12,13,14,15,16,17-tetradecahydro-1H-cyclopenta[a]phenanthren-17-yl)pentanoyl)-N,N-dimethylpiperazine-1-sulfonamide] | < 250 | > 10000 |
| CNC(=O)NCC1(C)CCN(C(=O)CC[C@@H](C)[C@H]2CC[C@H]3[C@@H]4CC=C5C[C@@H](O)CC[C@]5(C)[C@H]4CC[C@]23C)CC1 [Example 364, 1-((1-((R)-4-((3S,8S,9S,10R,13R,14S,17R)-3-hydroxy-10,13-dimethyl-2,3,4,7,8,9,10,11,12,13,14,15,16,17-tetradecahydro-1H-cyclopenta[a]phenanthren-17-yl)pentanoyl)-4-methylpiperidin-4-yl)methyl)-3-methylurea] | < 250 | > 10000 |
| C[C@H](CCC(=O)N1CCN(C(=O)N2CCCC2)CC1)[C@H]1CC[C@H]2[C@@H]3CC=C4C[C@@H](O)CC[C@]4(C)[C@H]3CC[C@]12C [Example 207, (R)-4-((3S,8S,9S,10R,13R,14S,17R)-3-hydroxy-10,13-dimethyl-2,3,4,7,8,9,10,11,12,13,14,15,16,17-tetradecahydro-1H-cyclopenta[a]phenanthren-17-yl)-1-(4-(pyrrolidine-1-carbonyl)piperazin-1-yl) pentan-1-one] | < 250 | > 10000 |
| Cc1noc(C(=O)N2CCN(C(=O)CC[C@@H](C)[C@H]3CC[C@H]4[C@@H]5CC=C6C[C@@H](O)CC[C@]6(C)[C@H]5CC[C@]34C)CC2)n1 [Example 292, (R)-4-((3S,8S,9S,10R,13R,14S,17R)-3-hydroxy-10,13-dimethyl-2,3,4,7,8,9,10,11,12,13,14,15,16,17-tetradecahydro-1H-cyclopenta[a]phenanthren-17-yl)-1-(4-(3-methyl-1,2,4-oxadiazole-5-carbonyl)piperazin-1-yl)pentan-1-one] | < 250 | > 10000 |
| CC[C@@]1(OC)CCCN(C(=O)CC[C@@H](C)[C@H]2CC[C@H]3[C@@H]4CC=C5C[C@@H](O)CC[C@]5(C)[C@H]4CC[C@]23C)C1 [Example 201, (R)-1-((R)-3-ethyl-3-methoxypiperidin-1-yl)-4-((3S,8S,9S,10R,13R,14S,17R)-3-hydroxy-10,13-dimethyl-2,3,4,7,8,9,10,11,12,13,14,15,16,17-tetradecahydro-1H-cyclopenta[a]phenanthren-17-yl)pentan-1-one] | < 250 | 1000 to 10000 |
| C[C@H](CCC(=O)N1CCN(C(=O)N2CCC[C@@H]2C)CC1)[C@H]1CC[C@H]2[C@@H]3CC=C4C[C@@H](O)CC[C@]4(C)[C@H]3CC[C@]12C [Example 666, (R)-4-((3S,8S,9S,10R,13R,14S,17R)-3-hydroxy-10,13-dimethyl-2,3,4,7,8,9,10,11,12,13,14,15,16,17-tetradecahydro-1H-cyclopenta[a]phenanthren-17-yl)-1-(4-((S)-2-methylpyrrolidine-1-carbonyl)piperazin-1-yl)pentan-1-one] | < 250 | > 10000 |
| C=CCN1C[C@H]2CON(C(=O)CC[C@@H](C)[C@H]3CC[C@H]4[C@@H]5CC=C6C[C@@H](O)CC[C@]6(C)[C@H]5CC[C@]34C)[C@H]2C1 [Example 44, (R)-1-((3aR,6aR)-5-allylhexahydro-1H-pyrrolo[3,4-c]isoxazol-1-yl)-4-((3S,8S,9S,10R,13R,14S,17R)-3-hydroxy-10,13-dimethyl-2,3,4,7,8,9,10,11,12,13,14,15,16,17-tetradecahydro-1H-cyclopenta[a]phenanthren-17-yl)pentan-1-one] | 250 to 1000 | > 10000 |
| COc1cccnc1NC(=O)CC[C@@H](C)[C@H]1CC[C@H]2[C@@H]3CC=C4C[C@@H](O)CC[C@]4(C)[C@H]3CC[C@]12C [Example 625, (R)-4-((3S,8S,9S,10R,13R,14S,17R)-3-hydroxy-10,13-dimethyl-2,3,4,7,8,9,10,11,12,13,14,15,16,17-tetradecahydro-1H-cyclopenta[a]phenanthren-17-yl)-N-(3-methoxypyridin-2-yl)pentanamide] | < 250 | > 10000 |
| C[C@H](CCC(=O)N1CCC(N(C)C(=O)c2ccncc2)CC1)[C@H]1CC[C@H]2[C@@H]3CC=C4C[C@@H](O)CC[C@]4(C)[C@H]3CC[C@]12C [Example 416, N-(1-((R)-4-((3S,8S,9S,10R,13R,14S,17R)-3-hydroxy-10,13-dimethyl-2,3,4,7,8,9,10,11,12,13,14,15,16,17-tetradecahydro-1H-cyclopenta[a]phenanthren-17-yl)pentanoyl)piperidin-4-yl)-N-methylisonicotinamide] | < 250 | > 10000 |
| CCC(=O)N1CCN(C(=O)CC[C@@H](C)[C@H]2CC[C@H]3[C@@H]4CC=C5C[C@@H](O)CC[C@]5(C)[C@H]4CC[C@]23C)C[C@@H]1C [Example 569, (R)-4-((3S,8S,9S,10R,13R,14S,17R)-3-hydroxy-10,13-dimethyl-2,3,4,7,8,9,10,11,12,13,14,15,16,17-tetradecahydro-1H-cyclopenta [a]phenanthren-17-yl)-1-((S)-3-methyl-4-propionylpiperazin-1-yl)pentan-1-one] | < 250 | > 10000 |
| CCC(=O)N1CCN(C(=O)CC[C@@H](C)[C@H]2CC[C@H]3[C@@H]4CC=C5C[C@@H](O)CC[C@]5(C)[C@H]4CC[C@]23C)[C@@H](C)C1 [Example 583, (4R)-4-[(1R,3aS,3bS,7S,9aR,9bS,11aR)-7-hydroxy-9a,11a-dimethyl-1H,2H,3H,3aH,3bH,4H,6H,7H,8H,9H,9aH,9bH,10H,11H,11aH-cyclopenta[a]phenanthren-1-yl]-1-[(2S)-2-methyl-4-propanoylpiperazin-1-yl]pentan-1-one] | < 250 | > 10000 |
| C[C@H](CCC(=O)N1CCN(c2ccnc(O)n2)CC1)[C@H]1CC[C@H]2[C@@H]3CC=C4C[C@@H](O)CC[C@]4(C)[C@H]3CC[C@]12C [Example 559, (R)-4-((3S,8S,9S,10R,13R,14S,17R)-3-hydroxy-10,13-dimethyl-2,3,4,7,8,9,10,11,12,13,14,15,16,17-tetradecahydro-1H-cyclopenta[a]phenanthren-17-yl)-1-(4-(2-hydroxypyrimidin-4-yl)piperazin-1-yl)pentan-1-one] | < 250 | > 10000 |
| CCN(C)C(=O)OC[C@@H](C)[C@H]1CC[C@H]2[C@@H]3CC=C4C[C@@H](O)CC[C@]4(C)[C@H]3CC[C@]12C [Example 352, (2S)-2-[(1R,3aS,3bS,7S,9aR,9bS,11aS)-7-hydroxy-9a,11a-dimethyl-1H,2H,3H,3aH,3bH,4H,6H,7H,8H,9H,9aH,9bH,10H,11H,11aH-cyclopenta[a]phenanthren-1-yl]propyl N-ethyl-N-methylcarbamate] | < 250 | 1000 to 10000 |
